Measured values as given in patent publication US11530208B2, “Imidazo[4,5-C]pyridine derived SSAO inhibitors” (PROXIMAGEN, LLC, priority 2014, dated 2022).
pIC50: −log10 of the molar value.

Tests used:
human SSAO = human SSAO (Homo sapiens (Human), UniProt Q16853); assay: SSAO enzyme inhibition assay; format: biochemical; conditions: purified recombinantly expressed human SSAO, benzylamine substrate, RT
Procedure: All primary assays were performed at RT. with purified recombinantly expressed human SSAO. Enzyme was prepared essentially as described in Öhman et al. (Protein Expression and Purification 46 (2006) 321-331). In addition, secondary- and selectivity assays were performed using SSAO prepared from various tissues or purified rat recombinant SSAO. The enzyme activity was assayed with benzylamine as substrate by measuring either benzaldehyde production, using ^14C-labeled substrate, or by utilizing the production of hydrogen peroxide in a horseradish peroxidase (HRP) coupled reaction. Briefly, test compounds were dissolved in dimethyl sulfoxide (DMSO) to a concentration of 10 mM. Dose-response measurements were assayed by either creating 1:10 serial dilutions in DMSO to produce a 7 point curve or by making 1:3 serial dilutions in DMSO to produce 11 point curves. The top concentrations were adjusted depending on the potency of the compounds and subsequent dilution in reaction buffer yielded a final DMSO concentration ≤2%.
In a horseradish peroxidase (HRP) coupled reaction, hydrogen peroxide oxidation of 10-acetyl-3,7-dihydroxyphenoxazine produced resorufin, which is a highly fluorescent compound (Zhout and Panchuk-Voloshina. Analytical Biochemistry 253 (1997) 169-174; Amplex® Red Hydrogen Peroxide/peroxidase Assay kit, Invitrogen A22188). Enzyme and compounds in 50 mM sodium phosphate, pH 7.4 were set to pre-incubate in flat-bottomed microtiter plates for approximately 15 min before initiating the reaction by addition of a mixture of HRP, benzylamine and Amplex reagent. Benzylamine concentration was fixed at a concentration corresponding to the Michaelis constant, determined using standard procedures. Fluorescence intensity was then measured at several time points during 1-2 h, exciting at 544 nm and reading the emission at 590 nm. For the human SSAO assay final concentrations of the reagents in the assay wells were: SSAO enzyme 1 ug/mL, benzylamine 100 uM, Amplex reagent 20 uM, HRP 0.1 U/mL and varying concentrations of test compound. The inhibition was measured as % decrease of the signal compared to a control without inhibitor (only diluted DMSO). The background signal from a sample containing no SSAO enzyme was subtracted from all data points. Data was fitted to a four parameter logistic model and IC50 values were calculated using the GraphPad Prism 4 or XLfit 4 programs.
SSAO activity was assayed using 14C-labeled benzylamine and analysed by measuring radioactive benzaldehyde. In a white 96-well optiplate (Packard), 20 uL of diluted test compound was pre-incubated at RT with 20 uL SSAO enzyme for approximately 15 min with continuous agitation. All dilutions were made with PBS. The reaction was initiated by adding 20 uL of the benzylamine substrate solution containing [7-14C] Benzylamine hydrochloride (CFA589, GE Healthcare). The plate was incubated for 1 h as above after which the reaction was stopped by acidification (10 uL 1M aq HCl). Then 90 uL Micro Scint-E solution (Perkin-Elmer) was added to each well and the plate was continuously mixed for 15 min. Phase separation occurred instantly and activity was read in a Topcount scintillation counter (Perkin-Elmer). In the final reaction well, the human recombinant SSAO concentration was 10 ug/mL. In order to optimize sensitivity, the substrate concentration was decreased as compared to the HRP coupled assay in order to get a higher fraction of radioactive product. In the human SSAO assay, benzylamine concentration was 40 uM (0.2 uCi/mL). Data was analysed as above.

[1] = molecular target: human ether a go-go related gene (hERG) K+ channel (Homo sapiens (Human), UniProt Q12809); assay: hERG assay, IonWorks patch clamp electrophysiology; format: cell-based; conditions: Chinese Hamster Lung cell line stably expressing hERG, max concentration 11 uM
Procedure: Compounds of the invention were tested for inhibition of the human ether a go-go related gene (hERG) K^+ channel using IonWorks patch clamp electrophysiology. 8 Point concentration-response curves were generated on two occasions using 3-fold serial dilutions from the maximum assay concentration (11 uM). Electrophysiological recordings were made from a Chinese Hamster Lung cell line stably expressing the full length hERG channel. Single cell ion currents were measured in the perforated patch clamp configuration (100 ug/mL amphoterocin) at RT using an IonWorks Quattro instrument. The internal solution contained 140 mM KCl, 1 mM MgCl2, 1 mM EGTA and 20 mM HEPES and was buffered to pH 7.3. The external solution contained 138 mM NaCl, 2.7 mM KCl, 0.9 mM CaCl2, 0.5 mM MgCl2, 8 mM Na2HPO4 and 1.5 mM KH2PO4, and was buffered to pH 7.3. Cells were clamped at a holding potential of […] for 30 s and then stepped to +40 mV for 1 s. This was followed by a hyperpolarising step of 1 s to […] to evoke the hERG tail current. This sequence was repeated 5 times at a frequency of 0.25 Hz. Currents were measured from the tail step at the 5th pulse, and referenced to the holding current. Compounds were incubated for 6-7 min prior to a second measurement of the hERG signal using an identical pulse train. A minimum of 17 cells were required for each pIC50 curve fit. […]

Sequence of human SSAO (Q16853 29-763): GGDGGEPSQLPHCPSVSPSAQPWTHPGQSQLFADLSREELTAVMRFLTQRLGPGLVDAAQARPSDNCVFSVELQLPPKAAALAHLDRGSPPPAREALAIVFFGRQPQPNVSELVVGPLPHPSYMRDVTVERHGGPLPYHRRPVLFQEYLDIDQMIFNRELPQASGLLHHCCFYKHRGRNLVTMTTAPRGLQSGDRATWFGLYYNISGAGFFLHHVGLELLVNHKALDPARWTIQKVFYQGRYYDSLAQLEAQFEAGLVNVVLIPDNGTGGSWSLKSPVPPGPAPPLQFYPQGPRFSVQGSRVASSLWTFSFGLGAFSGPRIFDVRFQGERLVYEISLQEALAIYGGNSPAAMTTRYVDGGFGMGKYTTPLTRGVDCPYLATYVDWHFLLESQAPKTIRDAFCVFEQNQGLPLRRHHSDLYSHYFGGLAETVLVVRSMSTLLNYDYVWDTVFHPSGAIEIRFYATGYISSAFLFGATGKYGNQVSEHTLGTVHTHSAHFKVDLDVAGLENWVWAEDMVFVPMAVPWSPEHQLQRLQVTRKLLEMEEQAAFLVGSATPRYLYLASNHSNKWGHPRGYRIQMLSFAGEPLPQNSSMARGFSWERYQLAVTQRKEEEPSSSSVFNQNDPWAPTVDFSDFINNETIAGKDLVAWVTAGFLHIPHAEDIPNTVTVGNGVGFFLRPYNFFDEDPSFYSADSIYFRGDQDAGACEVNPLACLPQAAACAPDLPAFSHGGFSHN
Sequence of human ether a go-go related gene (hERG) K+ channel (Q12809 whole entry): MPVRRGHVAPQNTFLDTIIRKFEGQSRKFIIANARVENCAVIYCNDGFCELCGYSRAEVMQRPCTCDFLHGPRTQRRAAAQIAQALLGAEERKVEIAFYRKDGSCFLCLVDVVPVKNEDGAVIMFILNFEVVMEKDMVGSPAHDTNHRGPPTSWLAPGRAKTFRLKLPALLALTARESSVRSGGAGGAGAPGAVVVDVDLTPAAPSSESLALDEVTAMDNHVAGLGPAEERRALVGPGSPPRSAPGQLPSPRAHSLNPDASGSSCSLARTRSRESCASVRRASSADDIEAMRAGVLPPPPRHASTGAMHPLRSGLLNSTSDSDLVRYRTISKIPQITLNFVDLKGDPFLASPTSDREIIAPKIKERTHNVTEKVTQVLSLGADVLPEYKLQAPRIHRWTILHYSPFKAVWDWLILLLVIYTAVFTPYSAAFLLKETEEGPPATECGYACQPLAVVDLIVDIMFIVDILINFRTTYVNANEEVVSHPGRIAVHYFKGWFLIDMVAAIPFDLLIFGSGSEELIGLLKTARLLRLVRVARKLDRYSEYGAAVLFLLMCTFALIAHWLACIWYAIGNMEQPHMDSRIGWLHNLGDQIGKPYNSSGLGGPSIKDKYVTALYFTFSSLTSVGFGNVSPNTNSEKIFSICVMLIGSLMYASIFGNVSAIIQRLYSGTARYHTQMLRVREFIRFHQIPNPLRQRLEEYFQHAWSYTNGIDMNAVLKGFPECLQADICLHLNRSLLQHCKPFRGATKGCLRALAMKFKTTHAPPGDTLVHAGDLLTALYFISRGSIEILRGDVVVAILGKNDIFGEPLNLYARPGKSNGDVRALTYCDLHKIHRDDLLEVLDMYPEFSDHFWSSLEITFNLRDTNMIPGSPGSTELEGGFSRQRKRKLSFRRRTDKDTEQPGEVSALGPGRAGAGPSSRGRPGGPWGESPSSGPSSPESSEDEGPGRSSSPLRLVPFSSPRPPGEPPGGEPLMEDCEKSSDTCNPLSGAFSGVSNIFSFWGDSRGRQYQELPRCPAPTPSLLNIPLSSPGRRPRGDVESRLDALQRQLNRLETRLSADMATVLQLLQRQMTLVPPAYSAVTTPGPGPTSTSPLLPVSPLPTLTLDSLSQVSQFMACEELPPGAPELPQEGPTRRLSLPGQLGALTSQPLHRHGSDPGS

Row | SMILES | pIC50 (human SSAO) | pIC50 [1]
1 | O=C1Cc2cc(-c3nc4ccncc4n3-c3ccc(F)cc3)ccc2N1 [Example 1, 5-[3-(4-Fluorophenyl)-3H-imidazo[4,5-c]pyridin-2-yl]-2,3-dihydro-1H-indol-2-one] | 6.70 to 7.30 | –
2 | Fc1ccc(-n2c(-c3ccc4nc[nH]c4c3)nc3ccncc32)cc1 [Example 2, 5-[3-(4-Fluorophenyl)-3H-imidazo[4,5-c]pyridin-2-yl]-1H-1,3-benzodiazole] | 6.30 to 6.70 | –
3 | CC(C)(O)CNc1ncc(-c2nc3ccncc3n2-c2ccc(F)cc2)cn1 [Example 3, 1-({5-[3-(4-Fluorophenyl)-3H-imidazo[4,5-c]pyridin-2-yl]pyrimidin-2-yl}amino)-2-methylpropan-2-ol] | > 7.30 | < 5.00
4 | Cc1ccc(-n2c(-c3cnc(NCC(C)(C)O)nc3)nc3ccncc32)cc1 [Example 4, 2-Methyl-1-({5-[3-(4-methylphenyl)-3H-imidazo[4,5-c]pyridin-2-yl]pyrimidin-2-yl}amino)propan-2-ol] | > 7.30 | –
5 | Clc1ccc(-n2c(C3CCN(c4ccncc4)CC3)nc3ccncc32)cc1 [Example 5, 4-{4-[3-(4-Chlorophenyl)-3H-imidazo[4,5-c]pyridin-2-yl]piperidin-1-yl}pyridine; bis(formic acid)] | > 7.30 | 6.00 to 8.00
6 | O=c1cc(N2CCC(c3nc4ccncc4n3-c3ccc(Cl)cc3)CC2)nc[nH]1 [Example 6, 6-{4-[3-(4-Chlorophenyl)-3H-imidazo[4,5-c]pyridin-2-yl]piperidin-1-yl}-3,4-dihydropyrimidin-4-one] | 6.30 to 6.70 | –
7 | Clc1ccc(-n2c(Cc3cccnc3)nc3ccncc32)cc1 [Example 7, 3-{[3-(4-Chlorophenyl)-3H-imidazo[4,5-c]pyridin-2-yl]methyl}pyridine; bis(formic acid)] | 6.30 to 6.70 | –
8 | Clc1ccc(-n2c(CCCn3ccnc3)nc3ccncc32)cc1 [Example 8, 1-{3-[3-(4-chlorophenyl)-3H-imidazo[4,5-c]pyridin-2-yl]propyl}-1H-imidazole] | 6.30 to 6.70 | –
9 | O=C(NCC1CCOCC1)c1nc2ccncc2n1-c1ccc(F)cc1 [Example 9, 3-(4-Fluorophenyl)-N-(oxan-4-ylmethyl)-3H-imidazo[4,5-c]pyridine-2-carboxamide] | 6.30 to 6.70 | –
